Measured values published in patent US10596259B2, “Tumor radiosensitization with monomethyl auristatin E (MMAE) and derivatives thereof” (The Regents of the University of California, priority 2015, dated 2020).
Several values for one entry are separate records, joined by “and”; a condition that tells them apart may be missing. Equal values may be shown once. Entries after “also recorded” stand apart in the source; their conditions may differ. Read-outs that look alike come from different tables or passages of the source. Non-standard residues stand in square brackets, D forms with d. Residues, ends and D or L forms follow the SMILES beside them. *: point of attachment. Dolaproine = CO[C@@H]([C@@H]1CCCN1)[C@@H](C)C(=O)O; Dil = CC[C@H](C)[C@H](NC)[C@@H](CC(=O)O)OC; X1 = C[C@@H](N*)[C@@H](O)c1ccccc1; NMeV = CN[C@H](C(=O)O)C(C)C

Experiments:
CAL-27 tumor xenografts = assay: In vivo tumor xenograft growth with or without IR; design: species or system mice; settings: day 0 iv: 0.5 nmoles antibody or 2 nmoles free MMAE; no IR
Method: CAL-27 tumor xenografts were established and tumor growth was measured with digital calipers. Tumor volume was calculated using the formula as ½*Length*Width^2. Mice were randomized into groups once the average tumor volume reached >150 mm^3. Mice were assigned to indicated groups in the Results. […] Free MMAE was injected on an equimolar basis to ACPP-cRGD-MMAE in final volume of 3% DMSO. MMAE doses and IR fractionation are as indicated in the Results.

CAL-27 cells [1] = assay: Cell cycle analysis by flow cytometry (PI); type: cell-based, Human; settings: 5 nM, 24 hrs
Method: Cells were treated with RNAse, stained with propidium iodide (PI) and analyzed by FACS using FloJo software.

LN-229 cells = assay: Alamar Blue cell viability assay; type: cell-based; settings: 72 hours
Method: (§1) Alamar Blue (resazurin) was added to the cells and allowed to incubate for 2 hrs at 37° C. Plates were analyzed using a plate reader with fluorescence measured at 560 nm.

PANC-1 cells [2] = assay: Alamar Blue cell viability assay; type: cell-based, Human
Method: (§2) Cells were plated in 96 well plates at varying cell densities and exposed to range of concentrations of MMAE or paclitaxel for 72 hrs. Alamar Blue (also known as resazurin) was added to the cells and allowed to incubate for 2 hrs at 37° C. Plates were analyzed using a plate reader with fluorescence measured at 560 nm. For irradiated cells, cells were treated with MMAE overnight followed by 6 Gy.
(§3) Cells were plated in 96-well plates and exposed to MMAE or paclitaxel for 72 hours and analyzed at 560 nm. For irradiated cells, cells were treated with MMAE overnight followed by 6 Gy.

779E cells = assay: Alamar Blue cell viability assay; type: cell-based, Human
Method: as §2, §3

HCT-116 cells [3] = assay: Cell cycle analysis by FACS with PI staining; type: cell-based, Human
Method: (§4) Cells were treated with 0, 1, 2, or 5 nM MMAE for 24 hours and then fixed in methanol. Cells were treated with RNAse, stained with propidium iodide and analyzed by FACS using FloJo software.
(§5) Cells were treated with MMAE for 24 hours and then fixed in methanol. Cells were treated with RNAse, stained with propidium iodide (PI), and analyzed by FACS using FlowJo software.

PANC-1 cells [4] = assay: Cell cycle analysis by FACS with PI staining; type: cell-based, Human; settings: 2 nmol/L MMAE, 24 hours
Method: as §4, §5

CAL-27 cells [5] = assay: Alamar Blue cell viability assay; type: cell-based, Human; settings: 72 hours
Method: as §1

HCT-116 cells [6] = assay: γH2Ax immunostaining (foci formation); type: cell-based, Human
Method: (§6) Cells were grown on glass cover slips were treated with indicated concentrations of MMAE overnight and then irradiated. Two hours post IR, cells were fixed in 4% paraformaldehyde. Samples were then permeabilized in 0.25% Triton X-100, blocked in 1% BSA, incubated with antibody to γH2Ax for 1 hr at room temperature, washed, and incubated in secondary antibody for 1 hour at room temperature. Samples were incubated for 1 minute in a 1:5000 dilution of DAPI to label nuclei. The number of foci per cell was counted. 6-8 high power fields were counted per each group.
(§7) Cells grown on glass coverslips were treated with MMAE overnight and then irradiated. Two hours after IR, cells were fixed, permeabilized, and stained with antibody to […]. Nuclei were stained with 4′,6-diamidino-2-phenylindole (DAPI). Foci were counted in 6 to 8 high-power fields per group.

PANC-1 cells [7] = assay: γH2Ax immunostaining (foci formation); type: cell-based, Human
Method: as §6, §7

HCT-116 cells [8] = assay: Alamar Blue cell viability assay; type: cell-based, Human
Method: Alamar Blue (also known as resazurin) was added to the cells and allowed to incubate for 2 hrs at 37° C. Plates were analyzed using a plate reader with fluorescence measured at 560 nm. For irradiated cells, cells were treated with MMAE overnight followed by 6 Gy.
as §1, §3

HCT-116 cells [9] = assay: Clonogenic survival assay with IR; type: cell-based, Human
Method: (§8) Cells were treated with 0, 1, 2, or 5 nM of MMAE for 24 hours and then irradiated with 0, 2, or 6 Gy. Following IR, cells were counted, re-plated at varying cell numbers in drug free media. Colonies were counted […]. Colonies were then fixed and stained with crystal violet to quantify colonies.
(§9) Cells were treated with MMAE for 24 hours and then irradiated with 0 to 8 Gy. Following IR, cells were replated in drug-free media. Colonies formed over 10 to 14 days and were counted.

PANC-1 cells [10] = assay: Clonogenic survival assay with IR; type: cell-based, Human
Method: as §8, §9

XPA-1 cells = assay: Neutral comet assay (DNA double strand breaks); type: cell-based; settings: MMAE overnight, then IR
Method: Cells were treated for indicated length and doses of MMAE followed by 6 Gy. Cells were harvested 15 minutes after IR and underwent neutral electrophoresis (Trevigen). Comet tails were counted in multiple fields (>60 cells per sample) and analyzed using CometScore (TriTek Corp).

[11] = 72 hours exposure (Example 3), read-out: IC50
[12] = 72 hours exposure, read-out: IC50
[13] = MMAE overnight then 6 Gy IR, continuous exposure, viability at 72 hours, read-out: IC50 for MMAE

## CC[C@H](C)[C@@H]([C@@H](CC(=O)N1CCC[C@H]1[C@H](OC)[C@@H](C)C(=O)N[C@H](C)[C@@H](O)c1ccccc1)OC)N(C)C(=O)[C@@H](NC(=O)[C@@H](NC)C(C)C)C(C)C [MMAE, monomethyl auristatin E] (H-[NMeV]V[Dil][Dolaproine]-X1)
CAL-27 tumor xenografts
  tumor growth, non-irradiated tumors: delayed tumor growth
CAL-27 cells [1]
  cells in G2/M: 60%
LN-229 cells
  IC50: 3800 pM
PANC-1 cells [2]; [11]
  IC50: 600 pM
PANC-1 cells [2]; [12]
  IC50: 600 pM
PANC-1 cells [2]; IR 6 Gy combined with MMAE (Example 3), read-out: IC50 for MMAE
  IC50: 400 pM
PANC-1 cells [2]; MMAE alone, no IR, continuous exposure, viability at 72 hours, read-out: IC50 for MMAE
  IC50: 810 pM
PANC-1 cells [2]; [13]
  IC50: 350 pM
PANC-1 cells [2]; MMAE with 6 Gy IR vs MMAE alone
  relative reduction in the IC50 of MMAE: > 50% and ~50%
PANC-1 cells [2]; non-irradiated (Example 3), read-out: IC50 for MMAE
  IC50: 800 pM
779E cells; 72 hours exposure
  IC50: 5610 pM
779E cells; 72 hours exposure (Example 3)
  IC50: 5600 pM
HCT-116 cells [3]; 1 nmol/L MMAE, 24 hours
  cell-cycle profile: did not alter the cell-cycle profile
HCT-116 cells [3]; 5 nM (5 nmol/L) MMAE, 24 hrs
  cells blocked in G2/M: 50%
PANC-1 cells [4]
  cells blocked in G2-M: 50%
CAL-27 cells [5]
  IC50: 1100 pM
HCT-116 cells [6]; MMAE pre-treatment, then IR
  γH2AX foci formation vs IR alone: also seen in HCT-116 cells; also recorded: significantly increased
HCT-116 cells [6]; nonirradiated cells
  DNA damage (γH2AX): did not alter DNA damage
PANC-1 cells [7]; MMAE pre-treatment, then IR
  γH2AX foci formation vs IR alone: further significant enhancement; also recorded: significantly increased
PANC-1 cells [7]; non-irradiated cells
  γH2AX staining vs vehicle: did not significantly increase; also recorded: did not alter DNA damage
HCT-116 cells [8]; [11]
  IC50: 1700 pM
HCT-116 cells [8]; [12]
  IC50: 1660 pM
HCT-116 cells [8]; MMAE alone, no IR (Example 3), read-out: IC50 for MMAE
  IC50: 1600 pM
HCT-116 cells [8]; MMAE alone, no IR, continuous exposure, viability 72 hours after initiation, read-out: IC50 for MMAE
  IC50: 1580 pM
HCT-116 cells [8]; MMAE and 6 Gy IR (Example 3), read-out: IC50 for MMAE
  IC50: 800 pM
HCT-116 cells [8]; [13]
  IC50: 780 pM
HCT-116 cells [9]; 1 nM MMAE overnight
  surviving fraction at 2 Gy (SF2) vs vehicle: not significantly different
HCT-116 cells [9]; 5 nM MMAE overnight, then irradiated, re-plated drug free
  clonogenic survival curve vs vehicle: loss of the shoulder region of the survival curve at 2 Gy; also recorded: increased tumor cell kill at doses as low as 2 Gy
HCT-116 cells [9]; 2 and 5 nM MMAE overnight
  surviving fraction at 2 Gy (SF2) vs vehicle: significant reduction
PANC-1 cells [10]; 2 nM MMAE overnight, then irradiated, re-plated drug free
  clonogenic survival curve vs vehicle: loss of the shoulder region of the survival curve at 2 Gy; also recorded: increased tumor cell kill at doses as low as 2 Gy
PANC-1 cells [10]; 5 nM MMAE
  colony formation: Too few colonies formed
PANC-1 cells [10]; 1 or 2 nM MMAE overnight, 2 Gy
  surviving fraction at 2 Gy (SF2) vs vehicle: significantly reduced
XPA-1 cells
  comet tail length: significantly increased comet tail length
